Results on 19 compounds are retold here after patent publication US8030354B2, “Substituted biphenyl GPR40 modulators” (Amgen Inc., priority 2007, dated 2011).

GPR40, sequence (O14842 whole entry): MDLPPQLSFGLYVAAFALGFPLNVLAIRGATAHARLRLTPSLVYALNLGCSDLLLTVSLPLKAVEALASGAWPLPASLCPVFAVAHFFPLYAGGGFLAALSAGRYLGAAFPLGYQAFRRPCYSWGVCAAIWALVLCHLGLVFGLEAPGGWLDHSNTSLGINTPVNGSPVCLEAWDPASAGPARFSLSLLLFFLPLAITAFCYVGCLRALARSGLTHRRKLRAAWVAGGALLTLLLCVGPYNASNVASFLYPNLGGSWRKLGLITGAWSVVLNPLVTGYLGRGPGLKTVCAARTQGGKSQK

This test has as its target GPR40 (Homo sapiens, UniProt O14842). Nature of the test: Cell-based aequorin assay (CHO cells stably expressing GPR40 and aequorin). Particulars: activation of human GPR40, CHO cells, 0.01% HSA. Also noted: expressed in transfected cells; host or cells: CHO cells stably transfected with GPR40 and aequorin. The procedure: Briefly, the Aequorin assays were performed on doubly stable CHO cells expressing GPR40 and Aequorin DNA. […] The luminescence was recorded over a period of 20 seconds with a Microlumat luminometer (Berthold). […] The inositol phosphate assay was performed on an A9 cell line stably transfected with GPR40 (A9_GPR40). The cells were incubated with different concentrations of compounds and [^3H] inositol accumulation was measured after 1 hour.
Cell-based aequorin assays were employed to characterize the modulatory activity of compounds on the GPR40 signaling pathway. In an exemplary assay, CHO cells were stably transfected with both GPR40 and Aequorin (Euroscreen). Cells were detached from the tissue culture dish with 2 mL of trypsin (0.25%(w/v)). Trypsinization was halted with 28 mL of Hanks Buffered Salt Solution containing 20 mM Hepes (H/HBSS) and 0.01% fatty acid-free human serum albumin (HSA). Coelantrazine is added to 1 ug/mL, and the cells were incubated for 2 hours at room temperature. Compounds were dissolved in DMSO for preparation of 10 mM stock solutions. Compounds were diluted in H/HBSS containing 0.01% HSA. Serial dilutions of the test compounds were prepared to determine dose response.
Aequorin luminescence measurements were made using an EG&G Berthold 96-well luminometer, and the response was measured over a 20 second interval after cells and compounds were mixed. The maximum relative light units was plotted to determine dose response. The EC50 (effective concentration to reach 50% maximal response) was determined from the dose response plot.
`CCCC(CC(=O)O)c1cccc(OCc2ccc(-c3cc(OC)ccc3F)c(C(C)(C)C)c2F)c1` (single isomer, unassigned) [Example 67.3, (3R)-3-(3-(((2-(1,1-Dimethylethyl)-2′,3-difluoro-5′-(methyloxy)-1,1′-biphenyl-4-yl)methyl)oxy)phenyl)hexanoic acid or (3S)-3-(3-(((2-(1,1-dimethylethyl)-2′,3-difluoro-5′-(methyloxy)-1,1′-biphenyl-4-yl)methyl)oxy)phenyl)hexanoic acid]: the EC50 (usually the midpoint of the concentration-response curve) lay within 100 to 1000 nM.

As for `COc1ccc(F)c(-c2ccc(COc3cccc([C@@H](CC(=O)O)CC4CC4)c3)cc2S(=O)(=O)C(C)C)c1` (single isomer, unassigned) [Example 69.25, (R)-4-Cyclopropyl-3-{3-[2′-fluoro-5′-methoxy-2-(propane-2-sulfonyl)-biphenyl-4-ylmethoxy]-phenyl}-butyric acid or (S)-4-cyclopropyl-3-{3-[2′-fluoro-5′-methoxy-2-(propane-2-sulfonyl)-biphenyl-4-ylmethoxy]-phenyl}-butyric acid], the EC50 was 1000 to 10000 nM.

The compound `CCOc1cccc(-c2ccc(COc3cccc(CCC(=O)O)c3)cc2C(C)(C)C)c1` [Example 41, 3-(3-(((2-(1,1-Dimethylethyl)-3′-(ethyloxy)-1,1′-biphenyl-4-yl)methyl)oxy)phenyl)propanoic acid] gave a half-maximal effective concentration (EC50) of 1000 to 10000 nM.

The compound `COc1ccc(F)c(-c2ccc(COc3cccc([C@@H](CC(=O)O)C4CC4)c3)cc2CN2CCCC2)c1` (single isomer, unassigned) [Example 66.65, (3S)-3-Cyclopropyl-3-(3-(((2′-fluoro-5′-(methyloxy)-2-(1-pyrrolidinylmethyl)-1,1′-biphenyl-4-yl)methyl)oxy)phenyl)propanoic acid or (3R)-3-cyclopropyl-3-(3-(((2′-fluoro-5′-(methyloxy)-2-(1-pyrrolidinylmethyl)-1,1′-biphenyl-4-yl)methyl)oxy)phenyl)propanoic acid] showed an EC50 of 1000 to 10000 nM.

As to `COc1ccc(F)c(-c2ccc(COc3cccc(C(CC(=O)O)CC4CC4)c3)cc2CN2[C@H](C)CC[C@H]2C)c1` (single isomer, unassigned) [Example 69.47, (3R)-4-Cyclopropyl-3-(3-(((2-(((2R,5R)-2,5-dimethyl-1-pyrrolidinyl)methyl)-2′-fluoro-5′-(methyloxy)-1,1′-biphenyl-4-yl)methyl)oxy)phenyl)butanoic acid or (3S)-4-cyclopropyl-3-(3-(((2-(((2R,5R)-2,5-dimethyl-1-pyrrolidinyl)methyl)-2′-fluoro-5′-(methyloxy)-1,1′-biphenyl-4-yl)methyl)oxy)phenyl)butanoic acid], the 50% effective concentration (EC50) was 100 to 1000 nM.

`CCC(CC(=O)O)c1cc(OCc2ccc(-c3cc(OC)ccc3F)c(C(C)(C)C)c2)ccc1F` (single isomer, unassigned) [Example 76.2, (3R)-3-(5-(((2-(1,1-Dimethylethyl)-2′-fluoro-5′-(methyloxy)-1,1′-biphenyl-4-yl)methyl)oxy)-2-fluorophenyl)pentanoic acid or (3S)-3-(5-(((2-(1,1-dimethylethyl)-2′-fluoro-5′-(methyloxy)-1,1′-biphenyl-4-yl)methyl)oxy)-2-fluorophenyl)pentanoic acid]: the EC50 lay within 1000 to 10000 nM.

Turning to `CC1(C)CCCC=C1c1cc(COc2cccc(C(CC(=O)O)C3CC3)c2)ccc1-c1cc(=O)[nH]cc1F` (single isomer, unassigned) [Example 66.35, (3S)-3-Cyclopropyl-3-(3-(((3-(6,6-dimethyl-1-cyclohexen-1-yl)-4-(5-fluoro-2-oxo-1,2-dihydro-4-pyridinyl)phenyl)methyl)oxy)phenyl)propanoic acid or (3R)-3-cyclopropyl-3-(3-(((3-(6,6-dimethyl-1-cyclohexen-1-yl)-4-(5-fluoro-2-oxo-1,2-dihydro-4-pyridinyl)phenyl)methyl)oxy)phenyl)propanoic acid], the EC50 lay in the range of 1000 to 10000 nM.

On to `CCCCCCOc1cc(COc2cccc([C@H](CCC)CC(=O)O)c2)ccc1-c1cc(OC)ccc1F` (single isomer, unassigned) [Example 67.15, (3R)-3-(3-(((2′-Fluoro-2-(hexyloxy)-5′-(methyloxy)-1,1′-biphenyl-4-yl)methyl)oxy)phenyl)hexanoic acid or (3S)-3-(3-(((2′-fluoro-2-(hexyloxy)-5′-(methyloxy)-1,1′-biphenyl-4-yl)methyl)oxy)phenyl)hexanoic acid], for which the EC50 is 100 to 1000 nM.

In turn, `COc1ccc(F)c(-c2ccc(COc3cccc([C@@H](CC(=O)O)C4CC4)c3)cc2[C@H](C)C(C)(C)C)c1` (single isomer, unassigned) [Example 66.18] displayed an EC50 of 100 to 1000 nM.

The compound `CCCC(CC(=O)O)c1cccc(OCc2ccc(-c3cc(OC)ccc3F)c(OCCCC(C)C)c2)c1` (single isomer, unassigned) [Example 67.16, (3R)-3-(3-(((2′-Fluoro-5′-(methyloxy)-2-((4-methylpentyl)oxy)-1,1′-biphenyl-4-yl)methyl)oxy)phenyl)hexanoic acid or (3S)-3-(3-(((2′-fluoro-5′-(methyloxy)-2-((4-methylpentyl)oxy)-1,1′-biphenyl-4-yl)methyl)oxy)phenyl)hexanoic acid] yielded an EC50 of 100 to 1000 nM.

Consider `COc1ccc(F)c(-c2ccc(COc3cccc([C@H](C)CC(=O)O)c3)cc2OC2CCCC2)c1` (single isomer, unassigned) [Example 32, (3R)-3-(3-(((2-(Cyclopentyloxy)-2′-fluoro-5′-(methyloxy)-1,1′-biphenyl-4-yl)methyl)oxy)phenyl)butanoic acid or (3S)-3-(3-(((2-(cyclopentyloxy)-2′-fluoro-5′-(methyloxy)-1,1′-biphenyl-4-yl)methyl)oxy)phenyl)butanoic acid], for which the EC50 fell in the range of 100 to 1000 nM.

Take `CSc1cccc(-c2ccc(COc3cccc(C(C)CC(=O)O)c3)cc2C(C)(C)C)c1` (single isomer, unassigned) [Example 64.23, (3R)-3-(3-(((2-(1,1-Dimethylethyl)-3′-(methylsulfanyl)-1,1′-biphenyl-4-yl)methyl)oxy)phenyl)butanoic acid or (3S)-3-(3-(((2-(1,1-dimethylethyl)-3′-(methylsulfanyl)-1,1′-biphenyl-4-yl)methyl)oxy)phenyl)butanoic acid]: the EC50 lay in the range of 1000 to 10000 nM.

For `COc1ccc(F)c(-c2ccc(COc3cccc(C(CC(=O)O)CC(C)C)c3)cc2C(C)(C)C)c1` (single isomer, unassigned) [Example 92, (3R)-3-(3-(((2-(1,1-Dimethylethyl)-2′-fluoro-5′-(methyloxy)-1,1′-biphenyl-4-yl)methyl)oxy)phenyl)-5-methylhexanoic acid or (3S)-3-(3-(((2-(1,1-dimethylethyl)-2′-fluoro-5′-(methyloxy)-1,1′-biphenyl-4-yl)methyl)oxy)phenyl)-5-methylhexanoic acid], the EC50 is 1000 to 10000 nM.

`COc1ccc(F)c(-c2ccc(COc3cccc(C(CC(=O)O)C4CC4)c3)cc2CN2CCCCCC2)c1` (single isomer, unassigned) [Example 66.73, (3S)-3-(3-(((2-(1-Azepanylmethyl)-2′-fluoro-5′-(methyloxy)-1,1′-biphenyl-4-yl)methyl)oxy)phenyl)-3-cyclopropylpropanoic acid or (3R)-3-(3-(((2-(1-azepanylmethyl)-2′-fluoro-5′-(methyloxy)-1,1′-biphenyl-4-yl)methyl)oxy)phenyl)-3-cyclopropylpropanoic acid] yielded an EC50 of 1000 to 10000 nM.

Turning to `COc1ccc(F)c(-c2ccc(COc3cccc([C@@H](CC(=O)O)CC4CC4)c3)cc2[S+]([O-])C(C)C)c1` (single isomer, unassigned) [Example 69.26, (R)-4-Cyclopropyl-3-{3-[2′-fluoro-5′-methoxy-2-(propane-2-sulfinyl)-biphenyl-4-ylmethoxy]-phenyl}-butyric acid or (S)-4-cyclopropyl-3-{3-[2′-fluoro-5′-methoxy-2-(propane-2-sulfinyl)-biphenyl-4-ylmethoxy]-phenyl}-butyric acid], the EC50 was 1000 to 10000 nM.

`CC[C@H](CC(=O)O)c1cccc(OCc2ccc(-c3cccc(OC)c3)c([C@@H]3CCCC3(C)C)c2)c1` (single isomer, unassigned) [Example 78.5]: the EC50 was in the range of 100 to 1000 nM.

`COc1ccc(F)c(-c2ccc(COc3cccc([C@@H](CC(=O)O)CC4CC4)c3)cc2[C@@H]2OCCC2(C)C)c1` (single isomer, unassigned) [Example 69.43] gave an EC50 of 1000 to 10000 nM.

Compound `COc1ccc(F)c(-c2ccc(COc3cccc(C(CC(=O)O)C4CC4)c3)cc2C2CCCC2(C)C)c1` (single isomer, unassigned) [Example 66.5] displayed a half-maximal effective concentration (EC50) of 100 to 1000 nM.

`CCCCC(CC(=O)O)c1cccc(OCc2ccc(-c3cc(OC)ccc3F)c(C(C)(C)C)c2)c1` (single isomer, unassigned) [Example 71.1, (3R)-3-(3-(((2-(1,1-Dimethylethyl)-2′-fluoro-5′-(methyloxy)-1,1′-biphenyl-4-yl)methyl)oxy)phenyl)heptanoic acid or (3S-3-(3-(((2-(1,1-dimethylethyl)-2′-fluoro-5′-(methyloxy)-1,1′-biphenyl-4-yl)methyl)oxy)phenyl)heptanoic acid] showed an EC50 of 100 to 1000 nM.
